Our source for the IC50 values is the Kinase Knowledgebase extract (Sharma et al. 2016).

pIC50: −log10 of the molar value.

This test has as its target PIK3CA (human) (UniProt P42336). The experiment in a line: Assessment of PIK3CA Kinase Activity.

PIK3CA (human), sequence (P42336 whole entry, looked up): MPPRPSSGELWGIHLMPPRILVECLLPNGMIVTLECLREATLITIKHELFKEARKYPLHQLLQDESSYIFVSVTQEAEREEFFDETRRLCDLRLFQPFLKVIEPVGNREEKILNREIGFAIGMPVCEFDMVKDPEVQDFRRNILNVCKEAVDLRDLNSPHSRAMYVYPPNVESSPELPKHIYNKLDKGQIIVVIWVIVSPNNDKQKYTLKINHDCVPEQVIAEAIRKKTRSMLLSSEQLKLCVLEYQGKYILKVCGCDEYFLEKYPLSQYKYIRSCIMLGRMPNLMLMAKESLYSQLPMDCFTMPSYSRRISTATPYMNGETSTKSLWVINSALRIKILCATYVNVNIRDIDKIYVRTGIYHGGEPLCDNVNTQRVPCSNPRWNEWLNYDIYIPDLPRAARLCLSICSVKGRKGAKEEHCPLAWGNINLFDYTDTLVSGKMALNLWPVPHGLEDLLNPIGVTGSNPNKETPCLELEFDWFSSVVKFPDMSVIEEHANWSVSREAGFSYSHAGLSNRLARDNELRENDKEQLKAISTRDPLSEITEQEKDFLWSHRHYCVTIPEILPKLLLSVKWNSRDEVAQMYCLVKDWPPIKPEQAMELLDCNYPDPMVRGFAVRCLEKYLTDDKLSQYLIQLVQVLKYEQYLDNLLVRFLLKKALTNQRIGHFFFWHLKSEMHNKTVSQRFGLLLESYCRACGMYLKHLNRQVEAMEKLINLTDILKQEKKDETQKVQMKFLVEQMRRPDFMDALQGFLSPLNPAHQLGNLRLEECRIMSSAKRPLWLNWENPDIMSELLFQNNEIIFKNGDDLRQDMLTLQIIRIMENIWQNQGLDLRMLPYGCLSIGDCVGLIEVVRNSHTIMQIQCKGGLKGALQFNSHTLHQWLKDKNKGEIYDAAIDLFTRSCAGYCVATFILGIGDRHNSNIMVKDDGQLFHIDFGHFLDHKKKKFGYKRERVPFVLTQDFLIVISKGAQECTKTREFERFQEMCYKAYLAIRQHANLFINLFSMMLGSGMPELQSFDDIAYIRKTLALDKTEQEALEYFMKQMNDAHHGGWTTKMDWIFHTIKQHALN

As usually defined, the pIC50 is the IC50 on a negative log10 scale, so that one unit is a factor of ten. A higher pIC50 goes with a low IC50. On to `CC(=O)N1CCC(Nc2nn3c(-c4cnc(N)c(C(F)(F)F)c4)cnc3s2)CC1`, for which the pIC50 was 7.74.

`c1cc(-c2cnc3sc(N4CCOCC4)nn23)c2cn[nH]c2c1` gave a pIC50 of 6.00 to 7.30.

`COc1cncc(-c2cnc3sc(NC4CCNCC4)nn23)c1` gave a negative logarithm of the IC50 (pIC50) of 6.00 to 7.30.

On to `CCNC(=O)NCCNc1nn2c(-c3cnc(N)c(C(F)(F)F)c3)cnc2s1`, for which the pIC50 is 6.00 to 7.30.

In turn, `CC(C)(C)OC(=O)N1CCC2(CC1)CC(Nc1nn3c(-c4cnc(N)c(C(F)(F)F)c4)cnc3s1)C2` had a pIC50 of 6.00 to 7.30.

Consider `CCNC(=O)N[C@H]1CC[C@H](Nc2nn3c(-c4cnc(N)c(C(F)(F)F)c4)c(Cl)nc3s2)CC1`, for which the pIC50 is 7.30 to 9.00.

In the case of `CN[C@H]1CC[C@H](N(C)c2nn3c(-c4cnc(N)c(C(F)(F)F)c4)cnc3s2)CC1`, the pIC50 was 6.00 to 7.30.

Take `COc1cncc(-c2cnc3sc(NC4CCN(S(C)(=O)=O)CC4)nn23)c1`: the negative-log IC50 (pIC50) was 6.00 to 7.30.

Molecule `NC(=O)C1CCN(c2nn3c(-c4cnc(N)c(C(F)(F)F)c4)cnc3s2)CC1` had a pIC50 of 6.00 to 7.30.

In turn, `COc1cncc(-c2cnc3sc(NCC4CCN(S(C)(=O)=O)CC4)nn23)c1` had a pIC50 of 6.00 to 7.30.

On to `Nc1ncc(-c2cnc3sc(N4C[C@H]5CNC[C@H]5C4)nn23)cc1C(F)(F)F`, for which the pIC50 was 6.00 to 7.30.

In turn, `Nc1ncc(-c2cnc3sc(NC[C@H]4CC[C@H](O)CC4)nn23)cc1C(F)(F)F` showed a pIC50 of 6.89.

`CC(=O)O[C@H]1CC[C@H](Nc2nn3c(-c4cnc(N)c(C(F)(F)F)c4)c(Cl)nc3s2)CC1`: the pIC50 is 6.00 to 7.30.

As for `CCNC(=O)N[C@H]1CC[C@@H](Nc2nn3c(-c4cnc(N)c(C(F)(F)F)c4)cnc3s2)CC1`, the pIC50 is 7.20.

As for `CC(C)(C)OC(=O)N1CCC(CNc2nn3c(-c4cnc(N)c(C(F)(F)F)c4)cnc3s2)CC1`, the pIC50 was 6.00 to 7.30.

As for `Nc1ncc(-c2cnc3sc(N4CCCC(O)C4)nn23)cc1C(F)(F)F` (stereo not drawn), the pIC50 was 6.00 to 7.30.

`COC(=O)C1CCN(c2nn3c(-c4cnc(N)c(C(F)(F)F)c4)cnc3s2)CC1` showed a pIC50 of 6.53.

`Nc1ncc(-c2cnc3sc(NC4CC5(CCNCC5)C4)nn23)cc1C(F)(F)F` had a pIC50 of 7.77.

The molecule `CN1CCN(C(=O)NCCNc2nn3c(-c4cnc(N)c(C(F)(F)F)c4)cnc3s2)CC1` gave a pIC50 of 6.58.

`CS(=O)(=O)NC1CCN(c2nn3c(-c4cnc(N)c(C(F)(F)F)c4)cnc3s2)C1` (stereo not drawn) gave a pIC50 of 6.00 to 7.30.

As to `CCNC(=O)NC1CCCN(c2nn3c(-c4cnc(N)c(C(F)(F)F)c4)cnc3s2)C1` (stereo not drawn), the pIC50 is 6.32.

Molecule `CC(C)(C)OC(=O)N1CCN(c2nn3c(-c4cnc(N)c(C(F)(F)F)c4)cnc3s2)CC1` gave a pIC50 of 6.00 to 7.30.

`CC(C)(C)OC(=O)N1C[C@@H]2CN(c3nn4c(-c5cnc(N)c(C(F)(F)F)c5)cnc4s3)C[C@@H]2C1` gave a pIC50 of 6.92.

`Nc1ncc(-c2c(Cl)nc3sc(N[C@H]4CC[C@H](NS(=O)(=O)c5ccc(F)cc5F)CC4)nn23)cc1C(F)(F)F` gave a negative-log IC50 (pIC50) of 5.77.

The molecule `CC(C)(C)OC(=O)N[C@H]1CC[C@H](Nc2nn3c(-c4cnc(N)c(C(F)(F)F)c4)cnc3s2)CC1` gave a pIC50 of 7.92.

For `Nc1ncc(-c2cnc3sc(N4CCCC5(CCNCC5)C4)nn23)cc1C(F)(F)F`, the pIC50 is 6.00 to 7.30.

Molecule `Nc1ncc(-c2cnc3sc(N4CCC(N)CC4)nn23)cc1C(F)(F)F` had a pIC50 of 6.00 to 7.30.

On to `Nc1ncc(-c2cnc3sc(NC4CCNCC4)nn23)cc1C(F)(F)F`, for which the pIC50 was 7.17.

The molecule `CS(=O)(=O)N1CCC(Nc2nn3c(-c4cnc(N)c(C(F)(F)F)c4)cnc3s2)CC1` showed a pIC50 of 7.92.

In turn, `Nc1ncc(-c2cnc3sc(N4CCCC(CO)C4)nn23)cc1C(F)(F)F` (stereo not drawn) showed a pIC50 of 6.75.

`CC(C)(C)OC(=O)N1CC(S(=O)(=O)N2CCC(Nc3nn4c(-c5cnc(N)c(C(F)(F)F)c5)cnc4s3)CC2)C1` had a pIC50 of 6.88.

`CC(C)S(=O)(=O)N1CCC(Nc2nn3c(-c4cnc(N)c(C(F)(F)F)c4)cnc3s2)CC1` showed a pIC50 of 6.54.

Turning to `Nc1ncc(-c2cnc3sc(N4CCC(C(=O)O)CC4)nn23)cc1C(F)(F)F`, the pIC50 was 6.00 to 7.30.

`Nc1ncc(-c2cnc3sc(N[C@H]4CC[C@@H](N)CC4)nn23)cc1C(F)(F)F` had a pIC50 of 7.30 to 9.00.

With `CC(=O)N[C@H]1CC[C@@H](Nc2nn3c(-c4cnc(N)c(C(F)(F)F)c4)cnc3s2)CC1`, the pIC50 was 6.00 to 7.30.

Molecule `Nc1ccc(-c2cnc3sc(N[C@H]4CC[C@H](O)CC4)nn23)cn1` showed a pIC50 of 6.00 to 7.30.

With `NCC1CCCN(c2nn3c(-c4cnc(N)c(C(F)(F)F)c4)cnc3s2)C1` (stereo not drawn), the pIC50 is 6.00 to 7.30.

`Nc1ncc(-c2cnc3sc(N4CCC5(CCNCC5)CC4)nn23)cc1C(F)(F)F`: the negative-log IC50 (pIC50) was 6.85.

Molecule `CN1CCN(c2ncc(-c3cnc4sc(NC5CCN(S(C)(=O)=O)CC5)nn34)cc2C(F)(F)F)CC1` showed a pIC50 of 4.64.

In turn, `CC(C)(C)OC(=O)NCCNc1nn2c(-c3cnc(N)c(C(F)(F)F)c3)cnc2s1` gave a pIC50 of 6.00 to 7.30.

`CC(C)(C)OC(=O)NCC1CCN(c2nn3c(-c4cnc(N)c(C(F)(F)F)c4)cnc3s2)CC1` had a pIC50 of 6.00 to 7.30.

In the case of `CS(=O)(=O)NCCCNc1nn2c(-c3cnc(N)c(C(F)(F)F)c3)cnc2s1`, the pIC50 was 7.30 to 9.00.

`CS(=O)(=O)N1CCN2CCN(c3nn4c(-c5cnc(N)c(C(F)(F)F)c5)cnc4s3)CC2C1` (stereo not drawn) had a pIC50 of 7.03.

Regarding `CS(=O)(=O)NC1CCCN(c2nn3c(-c4cnc(N)c(C(F)(F)F)c4)cnc3s2)C1` (stereo not drawn), the pIC50 was 6.00 to 7.30.

Take `NCC1CCN(c2nn3c(-c4cnc(N)c(C(F)(F)F)c4)cnc3s2)CC1`: the negative logarithm of the IC50 (pIC50) is 6.00 to 7.30.

Consider `CC(C)(C)OC(=O)N1CCC(Nc2nn3c(-c4cnc(N)c(C(F)(F)F)c4)cnc3s2)CC1`, for which the pIC50 is 6.00 to 7.30.

The molecule `Nc1ncc(-c2cnc3sc(N4CCNCC4)nn23)cc1C(F)(F)F` showed a pIC50 of 5.89.

For `Nc1ncc(-c2cnc3sc(N4CCC(N)C4)nn23)cc1C(F)(F)F` (stereo not drawn), the pIC50 is 6.00.

The molecule `Nc1ncc(-c2cnc3sc(N4CCC(O)CC4)nn23)cc1C(F)(F)F` showed a pIC50 of 6.00 to 7.30.

As to `CCOC(=O)C1CCCN(c2nn3c(-c4cnc(N)c(C(F)(F)F)c4)cnc3s2)C1` (stereo not drawn), the pIC50 was 6.00 to 7.30.

In turn, `Nc1ncc(-c2cnc3sc(NC4CCN(S(=O)(=O)C5CNC5)CC4)nn23)cc1C(F)(F)F` showed a pIC50 of 7.85.

In turn, `CS(=O)(=O)NCC1CCN(c2nn3c(-c4cnc(N)c(C(F)(F)F)c4)cnc3s2)CC1` showed a pIC50 of 6.00 to 7.30.

`CS(=O)(=O)N1CCC(N(CCN2CCCC2)c2nn3c(-c4cnc(N)c(C(F)(F)F)c4)cnc3s2)CC1` showed a pIC50 of 7.30 to 9.00.
